The values that follow come from patent publication US20230107642A1 (Erasca, Inc., priority 2020, published 2023).

Data set [1] can be described thus: Determination of total drug concentration in rat brain (BBB penetration). In kind it is in vivo. The settings on record: male SD rat, 2 mg/kg IV infusion for 4 hours, brain collected at end of 4 hours. The method, then:
BB. Example 9: Determination of Total Drug Concentration in Rat Brain
In Vivo Experimental Procedures
Infuse male SD rat at 2 mg/kg dose for 4 hours through IV administration route. Collect brain tissues at the end of 4 hours.
Sample Preparation Procedures
Dilute brain tissue by adding homogenization solvent (1:4, w/v). Homogenize diluted brain tissue samples. Extract analyte by adding organic solvent (1:4, v/v) with spiked internal standard. Vortex and centrifuge the samples. Remove supernatant and dilute with HPLC compatible solvent (1:3, v/v).
Inject diluted extract into LC-MS/MS system using reversed phase high performance liquid chromatography coupled with electrospray ionization and selected reaction monitoring. Determine the total drug concentration in brain samples by quantitating against the standard curve prepared using the same matrix.
The following data provides blood brain barrier (BBB) penetration activity for a selection of inventive compounds where were directly compared to sotorasib and adagrasib (concentration in brain measured in ng/g).
Compounds that were measured as having a total concentration in the brain of at least 60 ng/g are indicated as “+”.

Data set [2] concerns the target T1, Cys12 of the KRAS 4B G12C protein (Homo sapiens, UniProt P01116, G12C).
T1 construct: This protein contained 188 amino acids in total, including an N-terminal 6-Histidine tag; made in house; host or cells: E. coli BL21
In words: In vitro covalent adduct formation (CAF) assay, LC-MS intact mass. The settings on record: 10 uM compound, 60 min. In kind it is binding. The gist of the method: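 Percent covalent modification from intact-mass LC-MS, by relative free versus adducted protein (adducts within 1 Da of expected mass). Reaction: 10 μM compound with 5 μM E. coli-expressed, GDP-exchanged KRAS 4B G12C in TBS pH 7.4, 4% DMSO, 1 h at 22° C.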

Turning to `C=CC(=O)N1C[C@H](C)N(c2nc(=O)n3c4c(c(-c5ccc(F)cc5F)c(C(F)(F)F)cc24)SC[C@@H]3COC)C[C@H]1C` (atropisomer, axis not shown) [Example 13-1], the BBB activity result in data set [1] was “+ (Compounds that were measured as having a total concentration in the brain of at least 60 ng/g are indicated as “+”)”.

On to `C=CC(=O)N1[C@H](C)CN(c2nc(=O)n3c4c(c(-c5cc(Cl)c(F)cc5F)c(C(F)(F)F)cc24)SC[C@@H]3COC)C[C@@H]1C` (atropisomer, axis not shown) [Example 13-2], for which the BBB activity entry in data set [1] was “+ (Compounds that were measured as having a total concentration in the brain of at least 60 ng/g are indicated as “+”)”. As for `C=CC(=O)N1[C@H](C)CN(c2nc(=O)n3c4c(c(-c5ccc(Cl)cc5F)c(C(F)(F)F)cc24)SC[C@@H]3COC)C[C@@H]1C` (atropisomer, axis not shown) [Example 13-3], the BBB activity entry in data set [1] is on record as “+ (Compounds that were measured as having a total concentration in the brain of at least 60 ng/g are indicated as “+”)”. Still for that read-out and setting: for `C=CC(=O)N1[C@H](C)CN(c2nc(=O)n3c4c(c(-c5cc(Br)c(F)cc5F)c(C(F)(F)F)cc24)SC[C@@H]3COC)C[C@@H]1C` (atropisomer, axis not shown) [Example 13-4] the value was “+ (Compounds that were measured as having a total concentration in the brain of at least 60 ng/g are indicated as “+”)”; for `C=CC(=O)N1[C@H](C)CN(c2nc(=O)n3c4c(c(-c5cc(Br)c(F)cc5F)c(C(F)(F)F)cc24)SC[C@@H]3CC)C[C@@H]1C` (atropisomer, axis not shown) [Example 13-6], “+ (Compounds that were measured as having a total concentration in the brain of at least 60 ng/g are indicated as “+”)”. The same measure, in the same setting: for `C=CC(=O)N1CCN(c2nc(=O)n3c4c(c(-c5cc(Cl)c(F)cc5F)c(C(F)(F)F)cc24)SC[C@@H]3COC)CC1` (atropisomer, axis not shown) [Example 13-7] the value was “+ (Compounds that were measured as having a total concentration in the brain of at least 60 ng/g are indicated as “+”)”.

For `C=CC(=O)N1[C@H](C)CN(c2nc(=O)n3c4c(c(-c5cc(Cl)c(F)cc5F)c(C(F)(F)F)cc24)SC[C@@H]3CC)C[C@@H]1C` (atropisomer, axis not shown) [Example 13-8], in data set [1], the BBB activity entry is “+ (Compounds that were measured as having a total concentration in the brain of at least 60 ng/g are indicated as “+”)”. Turning to `C=CC(=O)N1[C@H](C)CN(c2nc(=O)n3c4c(c(-c5cc(I)c(F)cc5F)c(C(F)(F)F)cc24)SC[C@@H]3COC)C[C@@H]1C` (atropisomer, axis not shown) [Example 13-12], the BBB activity entry in data set [1] is given as “+ (Compounds that were measured as having a total concentration in the brain of at least 60 ng/g are indicated as “+”)”. With `C=CC(=O)N1[C@H](C)CN(c2nc(=O)n3c4c(c(-c5ccc(F)cc5F)c(C(F)(F)F)cc24)SC[C@@H]3COC)C[C@@H]1C` (atropisomer, axis not shown) [Example 13-15], the BBB activity result in data set [1] is reported as “+ (Compounds that were measured as having a total concentration in the brain of at least 60 ng/g are indicated as “+”)”. Still for that read-out and setting: the value for `C=CC(=O)N1CCN(c2nc(=O)n3c4c(c(-c5ccc(F)cc5F)c(C(F)(F)F)cc24)SC[C@@H]3COC)CC1` (atropisomer, axis not shown) [Example 13-17] was “+ (Compounds that were measured as having a total concentration in the brain of at least 60 ng/g are indicated as “+”)”. Turning to `C=CC(=O)N1[C@H](C)CN(c2nc(=O)n3c4c(c(-c5cc(Cl)c(F)cc5F)c(C(F)(F)F)cc24)SC[C@@H](OC)C3)C[C@@H]1C` (atropisomer, axis not shown) [Example 13-39], in data set [1], the BBB activity entry is given as “+ (Compounds that were measured as having a total concentration in the brain of at least 60 ng/g are indicated as “+”)”.

For the molecule `C=CC(=O)N1[C@H](C)CN(c2nc(=O)n3c4c(c(-c5cc(Cl)c(F)cc5F)c(C(F)(F)F)cc24)SCC2(COC2)C3)C[C@@H]1C` (atropisomer, axis not shown) [Example 13-44], the BBB activity result in data set [1] was “+ (Compounds that were measured as having a total concentration in the brain of at least 60 ng/g are indicated as “+”)”. For `C=CC(=O)N1[C@H](C)CN(c2nc(=O)n3c4c(c(-c5ccc(F)cc5F)c(C(F)(F)F)cc24)SC[C@@H](OCC)C3)C[C@@H]1C` (atropisomer, axis not shown) [Example 13-52], the BBB activity entry in data set [1] is given as “− (Compounds that did not meet this threshold are indicated as “−”)”. With `C=CC(=O)N1[C@H](C)CN(c2nc(=O)n3c4c(c(-c5cc(Br)c(F)cc5F)c(C(F)(F)F)cc24)SC[C@@H]3COC)C[C@@H]1C` [Example 1443, (3S)-7-((3S,5R)-4-acryloyl-3,5-dimethylpiperazin-1-yl)-10-(5-bromo-2,4-difluorophenyl)-3-(methoxymethyl)-9-(trifluoromethyl)-2,3-dihydro-5H-[1,4]thiazino[2,3,4-ij]quinazolin-5-one], the “% CAF 10 uM @ 60 min” value in data set [2] is on record as 85%.

As to `C=CC(=O)N1[C@H](C)CN(c2nc(=O)n3c4c(c(-c5cc(O)c(F)cc5F)c(C(F)(F)F)cc24)SC[C@@H]3COC)C[C@@H]1C` [Example 1444, (3S)-7-((3S,5R)-4-acryloyl-3,5-dimethylpiperazin-1-yl)-10-(2,4-difluoro-5-hydroxyphenyl)-3-(methoxymethyl)-9-(trifluoromethyl)-2,3-dihydro-5H-[1,4]thiazino[2,3,4-ij]quinazolin-5-one], the “% CAF 10 uM @ 60 min” value in data set [2] came to 90%. Regarding `C=CC(=O)N1[C@H](C)CN(c2nc(=O)n3c4c(c(-c5nc(N)ccc5I)c(C(F)(F)F)cc24)SC[C@@H]3COC)C[C@@H]1C` [Example 1449, (3S)-7-((3S,5R)-4-acryloyl-3,5-dimethylpiperazin-1-yl)-10-(6-amino-3-iodopyridin-2-yl)-3-(methoxymethyl)-9-(trifluoromethyl)-2,3-dihydro-5H-[1,4]thiazino[2,3,4-ij]quinazolin-5-one], the “% CAF 10 uM @ 60 min” value in data set [2] is 94%.

`C=CC(=O)N1[C@H](C)CN(c2nc(=O)n3c4c(c(-c5ccc(F)cc5)c(C(F)(F)F)cc24)SC[C@@H](N2CCCC2=O)C3)C[C@@H]1C` [Example 1450, (S)-8-((3S,5R)-4-acryloyl-3,5-dimethylpiperazin-1-yl)-11-(4-fluorophenyl)-3-(2-oxopyrrolidin-1-yl)-10-(trifluoromethyl)-3,4-dihydro-2H,6H-[1,4]thiazepino[2,3,4-ij]quinazolin-6-one]: in data set [2], the “% CAF 10 uM @ 60 min” value is 96%.

On to `C=CC(=O)N1[C@H](C)CN(c2nc(=O)n3c4c(c(-c5ccc(F)cc5F)c(C(F)(F)F)cc24)SC[C@@H]3CC)C[C@@H]1C` [Example 1451, (3S)-7-((3S,5R)-4-acryloyl-3,5-dimethylpiperazin-1-yl)-10-(2,4-difluorophenyl)-3-ethyl-9-(trifluoromethyl)-2,3-dihydro-5H-[1,4]thiazino[2,3,4-ij]quinazolin-5-one], for which, in data set [2], the “% CAF 10 uM @ 60 min” value is given as 95%. The same measure, in the same setting: for `C=CC(=O)N1[C@H](C)CN(c2nc(=O)n3c4c(c(-c5cc(Br)c(F)cc5F)c(C(F)(F)F)cc24)SCC2(COC2)C3)C[C@@H]1C` [Example 1452, 8′-((3S,5R)-4-acryloyl-3,5-dimethylpiperazin-1-yl)-11′-(5-bromo-2,4-difluorophenyl)-10′-(trifluoromethyl)-2′H,4′H,6′H-spiro[oxetane-3,3′-[1,4]thiazepino[2,3,4-ij]quinazolin]-6′-one] the value was 97%.

For the molecule `C=CC(=O)N1C[C@H](C)N(c2nc(=O)n3c4c(c(-c5cc(O)c(F)cc5F)c(C(F)(F)F)cc24)SCC2(COC2)C3)C[C@H]1C` [Example 1454, 8′-((2S,5R)-4-acryloyl-2,5-dimethylpiperazin-1-yl)-11′-(2,4-difluoro-5-hydroxyphenyl)-10′-(trifluoromethyl)-2′H,4′H,6′H-spiro[oxetane-3,3′-[1,4]thiazepino[2,3,4-ij]quinazolin]-6′-one], in data set [2], the “% CAF 10 uM @ 60 min” value is listed as 92%. Still for that read-out and setting: for `C=CC(=O)N1C[C@H](C)N(c2nc(=O)n3c4c(c(-c5cc(Br)c(F)cc5F)c(C(F)(F)F)cc24)SCC2(CCOCC2)C3)C[C@H]1C` [Example 1455, 8′-((2S,5R)-4-Acryloyl-2,5-dimethylpiperazin-1-yl)-11′-(5-bromo-2,4-difluorophenyl)-10′-(trifluoromethyl)-2,3,5,6-tetrahydro-2′H,4′H,6′H-spiro[pyran-4,3′-[1,4]thiazepino[2,3-4-ij]quinazolin]-6′-one] the value was 66%.

With “(3S,10R)-7-((2S,5R)-4-acryloyl-2,5-dimethylpiperazin-1-yl)-10-(5-chloro-2,4-difluorophenyl)-3-((4-cyclopropylpiperazin-1-yl)methyl)-9-(trifluoromethyl)-2,3-dihydro-5H-[1,4]thiazino[2,3,4-ij]quinazolin-5-one [Example 1360]”, the “% CAF 10 uM @ 60 min” value in data set [2] turned out to be 92.8%. On to “(3S,10S)-7-((2S,5R)-4-acryloyl-2,5-dimethylpiperazin-1-yl)-10-(5-chloro-2,4-difluorophenyl)-3-((4-cyclopropylpiperazin-1-yl)methyl)-9-(trifluoromethyl)-2,3-dihydro-5H-[1,4]thiazino[2,3,4-ij]quinazolin-5-one [Example 1361]”, for which, in data set [2], the “% CAF 10 uM @ 60 min” value is given as 29.8%.
